Square brackets hold non-standard residues; d marks the D form. Peptide text beside a SMILES is read from it.
Key:
SRIF receptors = molecular target: T1, SRIF receptors (Rattus norvegicus, UniProt P30680); assay: Yeast bioassay for SRIF antagonist activity (zone of growth inhibition of LY364 cells growing in response to SRIF); format: cell-based; settings: 10 µL of 5 mg/mL on filter disk, S-14 10 nM
T1 construct: expressed in transfected cells; host or cells: Saccharomyces cerevisiae strain LY364
Protocol: Agar plates containing LY364 cells that are growing in the presence of added SRIF are the basis for a sensitive SRIF antagonist assay, whereby zones of growth inhibition result from the addition of SRIF antagonists to the surface of the agar plate (see L.A. Price, et al., Molecular and Cellular Biology, 15, 6188-6195, 1995, incorporated herein by reference).
In this assay, LY364 cells are grown overnight in 2 mL of synthetic complete(SC) medium (3.4 g/L YNB without amino acids and ammonium sulfate, 10 g/L ammonium sulfate and 1.4 g/L CSM-ura-trp) with glucose (2%) and without uracil and tryptophan. These cells are washed and cultured for 4 to 8 hours in 5 mL of SC medium with lactate (3%) and without uracil and tryptophan, and finally grown overnight in 5 mL of SC medium with galactose (2%) and without uracil and tryptophan. Molten (50° C) SC agar medium with galactose (2%) and without uracil, tryptophan and histidine is adjusted to pH 6.8 with KOH, mixed with 2 x 10^4 cells/mL and SRIF (S-14, 10 nM) and poured into square (20 x 20 cm) petri dishes. Sterile filter disks are placed on the surface of the agar, and saturated with 10 µL of water or DMSO containing 5 mg/mL test peptides. After three days, the plates display a uniform cloudy background of […] cells growing in response to the added SRIF. […] This zone is quantified by measuring its diameter (mm), which varies according to the potency of the SRIF antagonist. Those peptides or mixtures of peptides displaying the largest zones of inhibition are further characterized.
Values are compared among samples in the same experiment, as the degree of yeast growth varies somewhat from assay to assay. For the first five sample types, in which progressively less complex mixtures of peptides are found, this assay is the primary determining factor in choosing which samples form the basis of subsequent syntheses.
Plates are read after 3 days. Samples shown in Table I in bold type are chosen for further synthesis. In Table I, all amino acids are D-amino acids and dashes represent undefined amino acid residues.

[1] = system: spontaneous growth hormone secretory pulses; assay: Spontaneous growth hormone secretory pulses in conscious rats under intravenous infusion; format: in vivo, Male Sprague-Dawley rats; settings: Figure 5
Protocol: Evaluation in conscious rats. Male Sprague-Dawley rats are fitted so as to allow efficient intravenous treatment with control and test compounds as well as frequent blood sampling. Blood samples are tested for growth hormone (GH) levels by radioimmunoassay. Blood samples are taken over a 12 hour period. At a 6 hour time point, peptide 1 is infused intravenously (300 µg/hr) into conscious, freely moving male rats for two hours. Control animals receive saline infusions over the same time period. […] It is known, SRIF is required for growth hormone pulsatility and that an SRIF antagonist abolishes said pulsatility (see Tannenbaum, G.S. and Ling, N., Endocrinology, 115, 1952-1957, 1984, incorporated herein by reference).

SSTR2 = SSTR2 (Rattus norvegicus, UniProt P30680); assay: cAMP accumulation in forskolin-stimulated GH4C1/SSTR2 cells (SPA radioimmunoassay); format: cell-based; design: expressed in transfected cells; host or cells: GH4C1 rat pituitary tumor cells (GH4C1/SSTR2); settings: in the absence of SRIF (inverse agonist activity)
Description: A primary effect of SRIF upon mammalian cells is the reduction of cyclic adenosine 3',5'-monophosphate(cAMP) levels, via inhibition of adenylyl cyclase. This is the basis of a common assay for SRIF agonists and antagonists, whereby SRIF agonists reduce artificially stimulated cAMP levels, and SRIF antagonists reverse the effect of SRIF. The rat pituitary tumor cell line GH4C1 predominantly expresses SSTR2, and responds to SRIF and to forskolin, a stimulator of adenylate cyclase (see C.M. Eppler, et al., J. Biol. Chem., 267, 15603-15612, 1992, incorporated herein by reference). […] This increases the response to SRIF and provides a greater dynamic range for the measurement of SRIF antagonist activity.
Stimulation of cells. GH4C1/SSTR2 cells, grown in DMEM with 10% bovine serum, are released from a tissue culture dish by incubation for several minutes at 37° C with PBS containing 0.5 mM EDTA. Cells are washed in induction buffer (PBS containing 100 µM IBMX (an inhibitor of cAMP breakdown) and 2 mM CaCl2) at room temperature, and resuspended at 2 x 10^6/mL in induction buffer. Into each well of a 96-well tray are added 50 µL of a 2 X concentration of stimulants in induction buffer. […] Baseline cAMP levels are determined in samples with no added forskolin or SRIF, and each treatment is performed in triplicate.
cAMP assay. […] The 96-well tray is sealed, shaken at room temperature overnight and measured for bound radioligand in a MicroBeta liquid scintillation counter (Wallac, Gaithersburg. MD). The standard curve is determined for each experiment by performing a nonlinear regression (exponential decay) analysis of cpm measured for the cAMP standards vs. their log concentrations, and test sample values are determined by using Prism software (Graphpad Software Inc., San Diego, CA) and are shown in Table II and Figure 1.
The intrinsic activity of an SRIF antagonist is the percent reversal of the SSTR2 activation by SRIF or MK678, wherein 0% is defined by cAMP levels in samples treated with forskolin plus SRIF or MK678 and 100% is the cAMP level measured after treatment with forskolin alone. […]

T1 sequence (P30680 whole entry): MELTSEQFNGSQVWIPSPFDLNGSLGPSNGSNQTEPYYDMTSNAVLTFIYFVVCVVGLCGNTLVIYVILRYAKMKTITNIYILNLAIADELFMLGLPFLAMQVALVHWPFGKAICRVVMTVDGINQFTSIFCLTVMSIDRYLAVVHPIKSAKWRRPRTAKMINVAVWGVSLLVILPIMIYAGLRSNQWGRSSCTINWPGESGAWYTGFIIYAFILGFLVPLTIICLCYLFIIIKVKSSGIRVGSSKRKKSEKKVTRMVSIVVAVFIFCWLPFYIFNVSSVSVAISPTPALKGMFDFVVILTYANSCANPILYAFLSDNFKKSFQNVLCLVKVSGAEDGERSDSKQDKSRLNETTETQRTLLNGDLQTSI
SSTR2, sequence (P30680 whole entry): as above

**Q.** For CC[C@@H](C)[C@@H](NC(=O)[C@@H](Cc1ccccc1)NC(=O)[C@@H](Cc1c[nH]cn1)NC(C)=O)C(=O)N[C@H](CCCNC(=N)N)C(=O)N[C@H](Cc1c[nH]c2ccccc12)C(=O)N[C@H](Cc1ccccc1)C(N)=O [Peptide 1, Ac-D-His-D-Phe-D-Ile-D-Arg-D-Trp-D-Phe-NH2] (Ac-[dH][dF][dI][dR][dW][dF]-NH2), which “Yeast Assay (mm)” value (SRIF receptors; Table III, diameter of zone of growth inhibition) is on record?
**A.** Its value is 20 mm.

**Q.** And the “Inhibition Zone (mm)” value (SRIF receptors; sample type 4th iteration, read after 3 days, compare only within same experiment)?
**A.** Its value is 18 mm.

**Q.** And the “growth hormone secretory pulses upon withdrawal” value ([1]; conscious male rats, after end of the two hour infusion of 300 µg/hr)?
**A.** Its value is “the pulses resume synchronously, and gradually desynchronize with time”.

**Q.** And the “spontaneous growth hormone secretory pulses during infusion” value ([1]; conscious, freely moving male rats, 300 µg/hr intravenously for two hours from 6 hour time point)?
**A.** The value was “abolition of these pulses”.

**Q.** What about the “forskolin-stimulated cAMP levels” value (SSTR2) of the same compound?
**A.** Its value is “increase in forskolin-stimulated cAMP levels”.

Source: patent EP0863156A1, “Peptides useful as somatostatin antagonists” (American Cyanamid Company, priority 1997, dated 1998)
